Values after ≈ are worked out from the molar mass of the structure shown. Read-outs that look alike come from different tables or passages of the source.
Legend:
5-HT2B (h) = molecular target: T1, 5-HT2B (h) (Homo sapiens, UniProt P41595); test: Radioligand binding; settings: control compound
T1 construct: Cerep (contract screening)
Method: (§1) The study was carried out by Cerep (Celle l'Evescault, France). An in vitro pharmacological profiling panel was designed to detect potential high-risk clinical adverse drug reactions. The panel comprised of 54 targets.
(§2) The specific ligand binding to the receptors was defined as the difference between the total binding and the non-specific binding determined in the presence of an excess of unlabelled ligand. Results were expressed as a per cent of control specific binding and as a per cent inhibition of control specific obtained in the presence of the test compounds. Results showing an inhibition (or stimulation) >50% were considered to represent significant effects of the test compounds. […] The IC50 values were determined by non-linear regression analysis of the competition curves generated with mean replicate values using Hill equation curve fitting. The inhibition constants (Ki) were calculated using the Cheng Prusoff equation.

[1] = tested on: cytoplasmic free Ca2+ in P. falciparum HB3 trophozoites; test: Ca2+ live imaging, Fluo-4; settings: SC compounds 10 and 20 μM; CPA 10 μM
[2] = molecular target: Ca2+ channel (L, verapamil site); test: Radioligand binding; settings: control compound
Method: as §1, §2

CACO 2 cells = test: Permeability assay; type: in vitro ADME; settings: Supplementary Table 2
Method: (§3) The study was conducted by Cyprotex (Macclesfield, United Kingdom). CACO 2 cells (Sigma-Aldrich, catalogue: 86010202) were seeded on Millipore Millicell plates and formed a confluent monolayer over 20 days before the experiment. On day 20, the tested compounds at a final concentration of 10 μM were added to the apical side of the membrane. The transport of the compound across the monolayer was monitored over a 2 h period by liquid chromatography (LC)–MS/MS quantification. The permeability coefficient (Papp) was calculated from the following equation: [drawing 1] , where dQ/dt is the rate of permeation of the drug across the cells, C0 the donor compartment concentration at time zero and A the area of the cell monolayer. C0 was obtained from analysis of the dosing solution at the start of the experiment.

P. falciparum strain Dd2 = test: Growth inhibition assay, asexual blood stages; type: cell-based, Plasmodium falciparum
Plasmodium berghei = test: Rodent malaria model; type: in vivo; settings: for Outcome: P. berghei
Method: This was the case for both an in vivo 4 day dosing regimen of 30 mg kg^−1 per day and an ex vivo one-cycle growth inhibition assay. […] Differential therapeutic efficacy in various rodent model systems is a well-established phenomenon and is typically associated with charged compounds, such as positively charged amidines and negatively charged phosphoric acid or carboxylic acid containing drugs. The phenomenon is explained based on selective uptake of charged compounds through parasite-induced channels, termed new permeation pathways, in the host cell plasma membrane and species-specific characteristics of the new permeation pathways.

Permeability assay = type: in vitro ADME; settings: human; CACO 2 cells, 10 μM, apical side, 2 h
Method: as §3

P. chabaudi = test: Rodent malaria model; type: in vivo; settings: 10 mg kg-1 i.v. 1x4 days
PK study = type: in vivo, rat; settings: rat, plasma, po; rats
Method: On the treatment day, all animals were weighed and the dosing volume was calculated for each individual animal according to its actual body weight. All animal were dosed once. Blood samples were taken at different time points and plasma was collected after centrifugation (10,000g, 10 min, 4 °C). Plasma samples were analysed by LC–MS/MS. […] All relevant observations were recorded. The PK studies in cynomolgus monkeys and beagle dogs were performed by the Laboratory of Pharmacology and Toxicology (LPT), Hamburg, and PK and toxicity studies in mice and rats were performed by the 4SC Discovery GmbH, Munich. PK parameters were obtained by a non-compartment analysis, using Kinetica 4.1 (Thermo Scientific).

[3] = In vitro metabolism in liver microsomes; settings: human microsome assay
Plasmodium vinckei = test: Rodent malaria model; type: in vivo; settings: P. vinckei, 30 mg kg-1 i.p. 1x4 days
Source text: The two SC compounds were also active in the Plasmodium vinckei rodent malaria model system.

HepG2 cells = test: Cytotoxicity; settings: 10 μM
Solubility in water = settings: for Solubility in H2O: Supplementary Table 2
TP (h) (TXA2/PGH2) = molecular target: T2, TP (h) (TXA2/PGH2) (Homo sapiens, UniProt P21731); test: Radioligand binding; settings: control compound
T2 construct: Cerep
T2 sequence (P21731 1-343): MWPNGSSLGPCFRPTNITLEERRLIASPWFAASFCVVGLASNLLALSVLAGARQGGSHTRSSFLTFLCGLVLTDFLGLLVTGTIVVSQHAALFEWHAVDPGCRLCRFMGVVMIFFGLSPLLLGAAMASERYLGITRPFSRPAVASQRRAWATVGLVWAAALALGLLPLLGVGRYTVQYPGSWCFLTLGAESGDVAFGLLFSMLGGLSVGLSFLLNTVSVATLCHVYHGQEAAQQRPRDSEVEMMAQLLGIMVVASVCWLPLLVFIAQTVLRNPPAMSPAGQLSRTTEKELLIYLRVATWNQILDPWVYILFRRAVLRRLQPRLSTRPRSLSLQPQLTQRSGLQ

a1 (non-selective) = test: Radioligand binding; settings: control compound
Method: as §1, §2

Na+ channel (site 2) = test: Radioligand binding; settings: control compound
a2 (non-selective) = test: Radioligand binding; settings: control compound
Method: as §1, §2

CXCR2 (IL-8B) (h) = molecular target: T3, CXCR2 (IL-8B) (h) (Homo sapiens, UniProt P25025); test: Radioligand binding; settings: control compound
T3 construct: Cerep
T3 sequence (P25025 1-360): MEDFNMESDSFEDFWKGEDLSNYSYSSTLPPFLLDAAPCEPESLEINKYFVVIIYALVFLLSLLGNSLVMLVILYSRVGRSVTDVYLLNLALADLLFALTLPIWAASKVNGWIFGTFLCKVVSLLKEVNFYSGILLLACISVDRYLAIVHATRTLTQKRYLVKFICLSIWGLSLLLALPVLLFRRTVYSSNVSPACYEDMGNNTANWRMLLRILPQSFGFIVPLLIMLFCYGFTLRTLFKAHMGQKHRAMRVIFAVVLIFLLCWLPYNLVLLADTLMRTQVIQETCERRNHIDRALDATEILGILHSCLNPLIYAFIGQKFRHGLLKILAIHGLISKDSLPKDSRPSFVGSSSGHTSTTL

CCR1 (h) = molecular target: T4, CCR1 (h) (Homo sapiens, UniProt P32246); test: Radioligand binding; settings: control compound
T4 construct: Cerep
T4 sequence (P32246 1-355): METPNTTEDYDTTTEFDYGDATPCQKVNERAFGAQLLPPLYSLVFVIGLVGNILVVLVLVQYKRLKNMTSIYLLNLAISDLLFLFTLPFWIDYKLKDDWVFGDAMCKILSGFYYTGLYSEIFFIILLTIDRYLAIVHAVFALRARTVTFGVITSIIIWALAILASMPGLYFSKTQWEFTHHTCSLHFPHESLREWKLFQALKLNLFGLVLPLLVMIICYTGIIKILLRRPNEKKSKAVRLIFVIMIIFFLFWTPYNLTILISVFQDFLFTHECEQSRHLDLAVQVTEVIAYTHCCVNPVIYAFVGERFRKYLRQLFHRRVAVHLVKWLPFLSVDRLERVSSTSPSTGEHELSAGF

sst (non-selective) = test: Radioligand binding; settings: control compound
Method: as §1, §2

[4] = read-out: Control specific binding IC50
[5] = read-out: Control specific binding Ki
[6] = Supplementary Table 2, read-out: In vitro IC50

T1 sequence (P41595 whole entry): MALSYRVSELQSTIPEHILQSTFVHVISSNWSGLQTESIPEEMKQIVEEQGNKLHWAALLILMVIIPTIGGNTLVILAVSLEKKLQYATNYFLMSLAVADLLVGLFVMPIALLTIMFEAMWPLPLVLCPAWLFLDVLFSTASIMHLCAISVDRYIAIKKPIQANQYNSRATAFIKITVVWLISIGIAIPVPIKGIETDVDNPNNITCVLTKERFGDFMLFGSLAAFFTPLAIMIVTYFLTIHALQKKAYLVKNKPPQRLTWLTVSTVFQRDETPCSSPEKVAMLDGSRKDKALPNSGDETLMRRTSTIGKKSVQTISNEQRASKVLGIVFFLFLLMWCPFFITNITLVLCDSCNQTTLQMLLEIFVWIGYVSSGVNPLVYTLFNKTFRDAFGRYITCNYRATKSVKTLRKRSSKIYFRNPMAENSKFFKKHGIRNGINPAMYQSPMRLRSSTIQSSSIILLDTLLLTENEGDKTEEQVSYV

## COc1cc(CC(C)N)c(OC)cc1I (racemic) [(±)DOI, reference compound]
5-HT2B (h); [4]
  IC50: 5.1 nM
5-HT2B (h); [5]
  Ki: 4.6 nM

## CC(=O)C1=C(O)[C@@H]2[C@H]3c4c[nH]c5cccc(c45)C[C@H]3C(C)(C)N2C1=O [CPA, cyclopiazonic acid, reference compound]
[1]
  effect on cytoplasmic free Ca^2+: induced a strong Ca^2+ responses

## COc1ccc(CCN(C)CCCC(C#N)(c2cc(OC)c(OC)c(OC)c2)C(C)C)cc1OC (stereo not drawn) [D 600, reference compound]
[2]; [4]
  IC50: 67 nM
[2]; [5]
  Ki: 34 nM

## N=C(N)c1cccc(NC(=O)Nc2ccc(S(=O)(=O)NCc3ccccc3)cc2)c1 [SC08165]
CACO 2 cells
  Papp: 1.22 10-6 cm s-1
P. falciparum strain Dd2; [6]
  IC50: 134 nM
Plasmodium berghei; 50 mg kg-1 i.p. 1x4 days
  Outcome: inactive

## N=C(N)c1cccc(NC(=O)Nc2ccc(S(=O)(=O)NCc3ccc(S(N)(=O)=O)cc3)cc2)c1 [SC09064]
Permeability assay
  Papp at 2 h, 10 μM: 0.28 ×10⁻⁶ cm/s
P. chabaudi
  Outcome: inactive
P. falciparum strain Dd2; Plasmodium falciparum, DD2, 72 h, Dd2, standard proliferation assay, 72 h exposure
  IC50: 10 ± 3 nM
Plasmodium berghei; 10 mg kg-1 i.v. 1x4 days
  Outcome: inactive
Plasmodium berghei; 50 mg kg-1 i.p. 1x4 days
  Outcome: inactive
Plasmodium berghei; in vivo
  activity against P. berghei: no activity
PK study
  bioavailability: 3%
[3]
  metabolic stability, residual after 1 h of incubation: 65%
Plasmodium vinckei
  Outcome: inactive
HepG2 cells
  adverse effects on HepG2 cells: no adverse effects
Solubility in water; water
  solubility: 316 µg/mL (≈ 629 µM)
Ames test
  Ames test: negative

## CCCN1CCN(C(=N)c2cccc(NC(=O)Nc3ccc(S(=O)(=O)NCc4ccc(S(N)(=O)=O)cc4)cc3)c2)CC1 [SC82367]
CACO 2 cells
  Papp: 5.40 10-6 cm s-1
P. falciparum strain Dd2; [6]
  IC50: 7 nM
Solubility in water
  Solubility in H2O: > 1000 µg/mL

## CC(C)N1CCN(C(=N)c2cccc(NC(=O)Nc3ccc(S(=O)(=O)NCc4ccc(S(N)(=O)=O)cc4)cc3)c2)CC1 [SC82486]
CACO 2 cells
  Papp: 2.50 10-6 cm s-1
P. falciparum strain Dd2; [6]
  IC50: 38 nM
Solubility in water
  Solubility in H2O: 100 µg/mL (≈ 163 µM)

## CCC(=O)N1CCN(C(=N)c2cccc(NC(=O)Nc3ccc(S(=O)(=O)NCc4ccc(S(N)(=O)=O)cc4)cc3)c2)CC1 [SC83289]
CACO 2 cells
  Papp: 1.70 10-6 cm s-1
P. falciparum strain Dd2; [6]
  IC50: 1820 nM
Solubility in water
  Solubility in H2O: 32 µg/mL (≈ 51 µM)

## N=C(c1cccc(NC(=O)Nc2ccc(S(=O)(=O)NCc3ccc(S(N)(=O)=O)cc3)cc2)c1)N1CCOCC1 [SC87507]
CACO 2 cells
  Papp: 1.23 10-6 cm s-1
P. falciparum strain Dd2; [6]
  IC50: 139 nM

## CCCCC[C@H](O)/C=C/[C@H]1[C@@H]2CO[C@@H](C2)[C@@H]1C/C=C\CCCC(=O)O [U 44069, reference compound]
TP (h) (TXA2/PGH2); [4]
  IC50: 14 nM
TP (h) (TXA2/PGH2); [5]
  Ki: 6.2 nM

## COc1cc2nc(N3CCN(C(=O)c4ccco4)CC3)nc(N)c2cc1OC [prazosin, reference compound]
a1 (non-selective); [4]
  IC50: 0.82 nM
a1 (non-selective); [5]
  Ki: 0.22 nM

## COc1ccc(C(=O)O[C@H]2CC[C@@]3(C)[C@@H]4CC[C@H]5[C@]6(O)C[C@H](O)[C@@]7(O)[C@@H](CN8C[C@@H](C)CC[C@H]8[C@@]7(C)O)[C@]6(O)C[C@@]53O[C@]24O)cc1OC [veratridine, reference compound]
Na+ channel (site 2); [4]
  IC50: 10000 nM
Na+ channel (site 2); [5]
  Ki: 9000 nM

## COC(=O)[C@@H]1[C@H]2C[C@H]3c4[nH]c5ccccc5c4CCN3C[C@@H]2CC[C@@H]1O [yohimbine, reference compound]
a2 (non-selective); [4]
  IC50: 69 nM
a2 (non-selective); [5]
  Ki: 30 nM

## IL-8: control compound of the binding panel [reference compound]
CXCR2 (IL-8B) (h); [4]
  IC50: 0.063 nM
CXCR2 (IL-8B) (h); [5]
  Ki: 0.029 nM

## MIP-1a: control compound of the binding panel [reference compound]
CCR1 (h); [4]
  IC50: 0.06 nM
CCR1 (h); [5]
  Ki: 0.03 nM

## somatostatin-14: control compound of the binding panel [reference compound]
Sst (non-selective); [4]
  IC50: 0.15 nM
Sst (non-selective); [5]
  Ki: 0.092 nM

From publication PMC5290327, “SC83288 is a clinical development candidate for the treatment of severe malaria” (Nature Communications, 2017)
